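Dose response: 5 concentrations. Exposure: 48 h. Format: 96-well plates. Endpoint: linear interpolation; highest concentration if not reached. GI50 is the concentration that inhibits growth by half. Definition used: TGI = concentration required for complete inhibition of growth.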
What was measured:
Assay in all cases: inhibition of tumour cell growth, NCI panel, 48 h
CAKI-1 renal = test system: CAKI-1 renal
UACC-62 melanoma = test system: UACC-62 melanoma
KM12 colon = test system: KM12 colon
IGROV1 ovarian = test system: IGROV1 ovarian
NCI-H522 lung = test system: NCI-H522 lung
HCC-2998 colon = test system: HCC-2998 colon
SW-620 colon = test system: SW-620 colon
NCI-H226 lung = test system: NCI-H226 lung
SN12C renal = test system: SN12C renal
HOP-62 NSCLC = test system: HOP-62 NSCLC
T-47D breast = test system: T-47D breast
UACC-257 melanoma = test system: UACC-257 melanoma
SNB-75 CNS = test system: SNB-75 CNS
MALME-3M melanoma = test system: MALME-3M melanoma
HOP-92 NSCLC = test system: HOP-92 NSCLC
SF-539 CNS = test system: SF-539 CNS
RXF 393 renal = test system: RXF 393 renal
SK-MEL-28 melanoma = test system: SK-MEL-28 melanoma
SR leukemia = test system: SR leukemia
HT29 colon = test system: HT29 colon
NCI-H460 lung = test system: NCI-H460 lung
MCF7 breast = test system: MCF7 breast
LOX IMVI melanoma = test system: LOX IMVI melanoma
OVCAR-8 ovarian = test system: OVCAR-8 ovarian
OVCAR-5 ovarian = test system: OVCAR-5 ovarian
COLO 205 colon = test system: COLO 205 colon
PC-3 prostate = test system: PC-3 prostate
SK-MEL-2 melanoma = test system: SK-MEL-2 melanoma

CN(C)CCCNc1c2ccc(Cl)cc2nc2c1oc1ccccc12
GI50 (CAKI-1 renal): 1.59 µM
TGI (CAKI-1 renal): 4.39 µM
GI50 (UACC-62 melanoma): 5.2 µM
TGI (UACC-62 melanoma): 19.6 µM
GI50 (KM12 colon): 2.76 µM
TGI (KM12 colon): 16.8 µM
GI50 (IGROV1 ovarian): 2.77 µM
TGI (IGROV1 ovarian): 7.49 µM
GI50 (NCI-H522 lung): 2.18 µM
TGI (NCI-H522 lung): 7.89 µM
GI50 (HCC-2998 colon): 1.77 µM
TGI (HCC-2998 colon): 4.18 µM
GI50 (SW-620 colon): 1.24 µM
TGI (SW-620 colon): 10.1 µM
GI50 (NCI-H226 lung): 3.19 µM
TGI (NCI-H226 lung): 11.9 µM
GI50 (SN12C renal): 2.5 µM
TGI (SN12C renal): 11.6 µM
GI50 (HOP-62 NSCLC): 2.61 µM
TGI (HOP-62 NSCLC): 9.05 µM
GI50 (T-47D breast): 4.84 µM
TGI (T-47D breast): 23.2 µM
GI50 (UACC-257 melanoma): 3.79 µM
TGI (UACC-257 melanoma): 15.2 µM
GI50 (SNB-75 CNS): 1.68 µM
TGI (SNB-75 CNS): 4.66 µM
GI50 (MALME-3M melanoma): 3.1 µM
TGI (MALME-3M melanoma): 10.6 µM
GI50 (HOP-92 NSCLC): 1.34 µM
TGI (HOP-92 NSCLC): 5.13 µM
GI50 (SF-539 CNS): 1.76 µM
TGI (SF-539 CNS): 3.39 µM
GI50 (RXF 393 renal): 1.64 µM
TGI (RXF 393 renal): 3.76 µM
GI50 (SK-MEL-28 melanoma): 4.43 µM
TGI (SK-MEL-28 melanoma): 16.3 µM
GI50 (SR leukemia): 2.34 µM
TGI (SR leukemia): 10.3 µM
GI50 (HT29 colon): 1.34 µM
TGI (HT29 colon): 3.58 µM
GI50 (NCI-H460 lung): 1.64 µM
TGI (NCI-H460 lung): 8.1 µM
GI50 (MCF7 breast): 1.77 µM
TGI (MCF7 breast): 6.02 µM
GI50 (LOX IMVI melanoma): 1.86 µM
TGI (LOX IMVI melanoma): 4.1 µM
GI50 (OVCAR-8 ovarian): 2.42 µM
TGI (OVCAR-8 ovarian): 7.87 µM
GI50 (OVCAR-5 ovarian): 2.46 µM
TGI (OVCAR-5 ovarian): 7.81 µM
GI50 (COLO 205 colon): 1.51 µM
TGI (COLO 205 colon): 4.03 µM
GI50 (PC-3 prostate): 2.16 µM
TGI (PC-3 prostate): 6.13 µM
GI50 (SK-MEL-2 melanoma): 3.29 µM
TGI (SK-MEL-2 melanoma): 12.6 µM

From PubChem BioAssay (NCI)
